row,melting point,Structure (SMILES)
1,197 to 198 °C,"CCc1cc2c(cc1C(F)(F)F)NC(=O)CC(c1cccc(-c3cccnc3)c1)=N2 [Example 211, 7-Ethyl-4-(3-pyridin-3-yl-phenyl)-8-trifluoromethyl-1,3-dihydro-benzo[b][1,4]diazepin-2-one]"
2,191 °C,"CCc1cnc(C)cc1-c1cccc(C2=Nc3cc(Cl)c(Cl)cc3NC(=O)C2)c1 [Example 150, 7,8-Dichloro-4-[3-(5-ethyl-2-methyl-pyridin-4-yl)-phenyl]-1,3-dihydro-benzo[b][1,4]diazepin-2-one]"
3,198 to 199 °C,"Cc1cc2c(cc1Cl)NC(=O)CC(c1cccc(-c3ccc(C4CC4)nc3)c1)=N2 [Example 161, 8-Chloro-4-[3-(6-cyclopropyl-pyridin-3-yl)-phenyl]-7-methyl-1,3-dihydro-benzo[b][1,4]diazepin-2-one]"
4,171 °C,"Cc1cc2c(cc1Cl)NC(=O)CC(c1cccc(-c3ccnc(CNC4CC4)c3)c1)=N2 [Example 378, 8-Chloro-4-[3-(2-cyclopropylaminomethyl-pyridin-4-yl)-phenyl]-7-methyl-1,3-dihydro-benzo[b][1,4]diazepin-2-one]"
5,219 °C,"Cc1nccc(-c2cccc(C3=Nc4cc(Cl)c(Cl)cc4NC(=O)C3)c2)c1C [Example 144, 7,8-Dichloro-4-[3-(2,3-dimethyl-pyridin-4-yl)-phenyl]-1,3-dihydro-benzo[b][1,4]diazepin-2-one]"
6,225 to 227 °C,"Cc1cc(-c2cc(C3=Nc4cc(C)c(Cl)cc4NC(=O)C3)ccn2)ccn1 [Example 295, 8-Chloro-7-methyl-4-(2′-methyl-[2,4′]bipyridinyl-4-yl)-1,3-dihydro-benzo[b][1,4]diazepin-2-one]"
7,166 °C,"CC(C)CN(C)Cc1cc(-c2cccc(C3=Nc4cc(OCC(F)(F)F)c(C(F)(F)F)cc4NC(=O)C3)c2)ccn1 [Example 397, 4-(3-{2-[(Isobutyl-methyl-amino)-methyl]-pyridin-4-yl}-phenyl)-7-(2,2,2-trifluoro-ethoxy)-8-trifluoromethyl-1,3-dihydro-benzo[b][1,4]diazepin-2-one]"
8,212 to 226 °C,"Cc1nccc(-c2cccc(C3=Nc4ccc(C(F)(F)F)cc4NC(=O)C3)c2)n1 [Example 304, 4-[3-(2-Methyl-pyrimidin-4-yl)-phenyl]-8-trifluoromethyl-1,3-dihydro-benzo[b][1,4]diazepin-2-one]"
9,165 to 167 °C,"O=C1CC(c2cccc(-c3ccnc(C4CCCC4)c3)c2)=Nc2ccc(C(F)(F)F)cc2N1 [Example 352, 4-[3-(2-Cyclopentyl-pyridin-4-yl)-phenyl]-8-trifluoromethyl-1,3-dihydro-benzo[b][1,4]diazepin-2-one]"
10,190 to 191 °C,"COCCOc1cc2c(cc1C(F)(F)F)NC(=O)CC(c1cccc(-c3cccnc3)c1)=N2 [Example 208, 7-(2-Methoxy-ethoxy)-4-(3-pyridin-3-yl-phenyl)-8-trifluoromethyl-1,3-dihydro-benzo[b][1,4]diazepin-2-one]"
11,227 to 230 °C,"Cc1cc(-c2cccc(C3=Nc4cc(C)c(C(F)(F)F)cc4NC(=O)C3)c2)ncn1 [Example 308, 7-Methyl-4-[3-(6-methyl-pyrimidin-4-yl)-phenyl]-8-trifluoromethyl-1,3-dihydro-benzo[b][1,4]diazepin-2-one]"
12,192 °C,"Cc1cc(-c2cccc(C3=Nc4ccccc4NC(=O)C3)c2)ccn1 [Example 71, 4-[3-(2-Methyl-pyridin-4-yl)-phenyl]-1,3-dihydro-benzo[b][1,4]diazepin-2-one]"
13,236 to 237 °C,"O=C1CC(c2cccc(-c3ncccn3)c2)=Nc2ccc(C(F)(F)F)cc2N1 [Example 338, 4-(3-Pyrimidin-2-yl-phenyl)-8-trifluoromethyl-1,3-dihydro-benzo[b][1,4]diazepin-2-one]"
14,163 °C,"CCOc1ccc2c(c1)N=C(c1cccc(-c3ccnc(C)c3)c1)CC(=O)N2 [Example 59, 7-Ethoxy-4-[3-(2-methyl-pyridin-4-yl)-phenyl]-1,3-dihydro-benzo[b][1,4]diazepin-2-one]"
15,248 to 250 °C,"Cc1cc(-c2cccc(C3=Nc4cc(C)c(Cl)cc4NC(=O)C3)c2)nc(N(C)C)n1 [Example 321, 8-Chloro-4-[3-(2-dimethylamino-6-methyl-pyrimidin-4-yl)-phenyl]-7-methyl-1,3-dihydro-benzo[b][1,4]diazepin-2-one]"
16,221 °C,"Cc1cc(-c2cccc(C3=Nc4cc(Cl)c(C(F)(F)F)cc4NC(=O)C3)c2)ccn1 [Example 82, 7-Chloro-4-[3-(2-methyl-pyridin-4-yl)-phenyl]-8-trifluoromethyl-1,3-dihydro benzo[b][1,4]diazepin-2-one]"
17,222 °C,"Cc1nccc(-c2cccc(C3=Nc4cc(OCC(F)(F)F)c(C(F)(F)F)cc4NC(=O)C3)c2)c1C [Example 145, 4-[3-(2,3-Dimethyl-pyridin-4-yl)-phenyl]-7-(2,2,2-trifluoro-ethoxy)-8-trifluoromethyl-1,3-dihydro-benzo[b][1,4]diazepin-2-one]"
18,236 °C,"Cc1cc(-c2cccc(C3=Nc4ccc(Cl)cc4NC(=O)C3)c2)cc(C)n1 [Example 118, 8-Chloro-4-[3-(2,6-dimethyl-pyridin-4-yl)-phenyl]-1,3-dihydro-benzo[b][1,4]diazepin-2-one]"

row,melting point,Structure (SMILES)
1,225 °C,"CCOc1cc2c(cc1C(F)(F)F)NC(=O)CC(c1cccc(-c3cc(C)nc(CO)c3)c1)=N2 [Example 406, 7-Ethoxy-4-[3-(2-hydroxymethyl-6-methyl-pyridin-4-yl)-phenyl]-8-trifluoromethyl-1,3-dihydro-benzo[b][1,4]diazepin-2-one]"
2,231 °C,"Cc1cc2c(cc1C)NC(=O)CC(c1cccc(-c3ccncc3)c1)=N2 [Example 69, 7,8-Dimethyl-4-(3-pyridin-4-yl-phenyl)-1,3-dihydro-benzo[b][1,4]diazepin-2-one]"
3,226 to 227 °C,"O=C1CC(c2cccc(-c3ccccn3)c2)=Nc2ccc(C(F)(F)F)cc2N1 [Example 33, 4-(3-Pyridin-2-yl-phenyl)-8-trifluoromethyl-1,3-dihydro-benzo[b][1,4]diazepin-2-one]"
4,197 °C,"CC(C)c1ccc(-c2cccc(C3=Nc4cc(OCC(F)(F)F)c(C(F)(F)F)cc4NC(=O)C3)c2)cn1 [Example 178, 4-[3-(6-Isopropyl-pyridin-3-yl)-phenyl]-7-(2,2,2-trifluoro-ethoxy)-8-trifluoromethyl-1,3-dihydro-benzo[b][1,4]diazepin-2-one]"
5,246 °C,"O=C1CC(c2cccc(-c3cccnc3)c2)=Nc2cc(F)c(F)cc2N1 [Example 116, 7,8-Difluoro-4-(3-pyridin-3-yl-phenyl)-1,3-dihydro-benzo[b][1,4]diazepin-2-one]"
6,208 °C,"O=C1CC(c2cccc(-c3ccccn3)c2)=Nc2cc(C(F)(F)F)c(Cl)cc2N1 [Example 107, 8-Chloro-4-(3-pyridin-2-yl-phenyl)-7-trifluoromethyl-1,3-dihydro-benzo[b][1,4]diazepin-2-one]"
7,251 to 252 °C,"Cc1cc(-c2cccc(C3=Nc4cc(N5CCOCC5)c(C(F)(F)F)cc4NC(=O)C3)c2)cc(C)n1 [Example 384, 4-[3-(2,6-Dimethyl-pyridin-4-yl)-phenyl]-7-morpholin-4-yl-8-trifluoromethyl-1,3-dihydro-benzo[b][1,4]diazepin-2-one]"
8,232 °C,"Cc1cc(-c2cccc(C3=Nc4cc(N(C)C(C)C)c(C(F)(F)F)cc4NC(=O)C3)c2)cc(C)n1 [Example 412, 4-[3-(2,6-Dimethyl-pyridin-4-yl)-phenyl]-7-(isopropyl-methyl-amino)-8-trifluoromethyl-1,3-dihydro-benzo[b][1,4]diazepin-2-one]"
9,201 °C,"CN(C)c1cc2c(cc1C(F)(F)F)NC(=O)CC(c1cccc(-c3ccccn3)c1)=N2 [Example 6, 7-Dimethylamino-4-(3-pyridin-2-yl-phenyl)-8-trifluoromethyl-1,3-dihydro-benzo[b][1,4]diazepin-2-one]"
10,251 to 253 °C,"Cc1cc2c(cc1C(F)(F)F)NC(=O)CC(c1cccc(-c3ccccn3)c1)=N2 [Example 46, 7-Methyl-4-(3-pyridin-2-yl-phenyl)-8-trifluoromethyl-1,3-dihydro-benzo[b][1,4]diazepin-2-one]"
11,235 to 237 °C,"CNc1nc(C)cc(-c2cccc(C3=Nc4cc(C)c(Cl)cc4NC(=O)C3)c2)n1 [Example 319, 8-Chloro-7-methyl-4-[3-(6-methyl-2-methylamino-pyrimidin-4-yl)-phenyl]-1,3-dihydro-benzo[b][1,4]diazepin-2-one]"
12,235 °C,"Cc1cncc(-c2cccc(C3=Nc4cc(C)c(Cl)cc4NC(=O)C3)c2)n1 [Example 131, 8-Chloro-7-methyl-4-[3-(6-methyl-pyrazin-2-yl)-phenyl]-1,3-dihydro-benzo[b][1,4]diazepin-2-one]"
13,226 to 228 °C,"Cc1cc2c(cc1Cl)NC(=O)CC(c1cccc(-c3cc(N(C)C)ncn3)c1)=N2 [Example 333, 8-Chloro-4-[3-(6-dimethylamino-pyrimidin-4-yl)-phenyl]-7-methyl-1,3-dihydro-benzo[b][1,4]diazepin-2-one]"
14,186 °C,"COc1ccc(-c2cccc(C3=Nc4ccc(OC(F)(F)F)cc4NC(=O)C3)c2)cn1 [Example 212, 4-[3-(6-Methoxy-pyridin-3-yl)-phenyl]-8-trifluoromethoxy-1,3-dihydro-benzo[b][1,4]diazepin-2-one]"
15,234 °C,"Cc1cc(-c2cccc(C3=Nc4cc(Cl)c(Cl)cc4NC(=O)C3)c2)cc(CO)n1 [Example 404, 7,8-Dichloro-4-[3-(2-hydroxymethyl-6-methyl-pyridin-4-yl)-phenyl]-1,3-dihydro-benzo[b][1,4]diazepin-2-one]"
16,232 °C,"CCOc1cc2c(cc1C(F)(F)F)NC(=O)CC(c1cccc(-c3cc(C)nc(C4CC4)c3)c1)=N2 [Example 258, 4-[3-(2-Cyclopropyl-6-methyl-pyridin-4-yl)-phenyl]-7-ethoxy-8-trifluoromethyl-1,3-dihydro-benzo[b][1,4]diazepin-2-one]"
17,201 to 205 °C,"Cc1cc2c(cc1C(F)(F)F)NC(=O)CC(c1cccc(-c3cc(N)ncn3)c1)=N2 [Example 328, 4-[3-(6-Amino-pyrimidin-4-yl)-phenyl]-7-methyl-8-trifluoromethyl-1,3-dihydro-benzo[b][1,4]diazepin-2-one]"

# — patent publication US6949542B2, “Dihydro-benzo[b][1,4]diazepin-2-one derivatives” (Hoffman-La Roche Inc., priority 2002, dated 2005)
